Experimental data from ChEMBL document CHEMBL1201862, “PubChem BioAssay data set” (2004).
Blank lines part the entries; values can stand above or below the compound they belong to. The source made the active and inactive calls.

Tests used:
Format in all cases: functional
[1] = biological target: T1, Corticotropin-releasing factor receptor 2/Corticotropin-releasing factor-binding protein (Homo sapiens, UniProt P24387+Q13324); assay: activators of CRF receptor 2 with binding protein – uHTS hits, confirmation (AID 602473); details: read-out: EC50_Mean
T1 sequence (Q13324 whole entry): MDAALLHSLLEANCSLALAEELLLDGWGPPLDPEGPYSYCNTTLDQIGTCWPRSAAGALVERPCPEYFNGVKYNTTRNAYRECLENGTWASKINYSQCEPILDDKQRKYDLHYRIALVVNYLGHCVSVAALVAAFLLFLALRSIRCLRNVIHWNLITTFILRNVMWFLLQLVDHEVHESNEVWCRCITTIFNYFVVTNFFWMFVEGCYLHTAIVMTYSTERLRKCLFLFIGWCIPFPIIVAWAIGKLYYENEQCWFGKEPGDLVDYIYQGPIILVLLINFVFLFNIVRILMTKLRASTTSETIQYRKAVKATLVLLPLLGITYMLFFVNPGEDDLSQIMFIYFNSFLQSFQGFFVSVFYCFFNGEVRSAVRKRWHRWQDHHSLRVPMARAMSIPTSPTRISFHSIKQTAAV
T1 sequence (P24387 whole entry): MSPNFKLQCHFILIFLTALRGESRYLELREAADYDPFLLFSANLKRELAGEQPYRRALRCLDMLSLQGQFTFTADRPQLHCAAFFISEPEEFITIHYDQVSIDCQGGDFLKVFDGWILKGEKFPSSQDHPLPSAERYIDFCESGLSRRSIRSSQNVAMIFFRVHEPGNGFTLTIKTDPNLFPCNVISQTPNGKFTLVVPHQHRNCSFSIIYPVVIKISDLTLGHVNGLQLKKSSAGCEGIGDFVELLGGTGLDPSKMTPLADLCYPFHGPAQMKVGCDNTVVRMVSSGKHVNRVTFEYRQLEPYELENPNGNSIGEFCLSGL

[2] = biological target: T2, Sentrin-specific protease 7 (Homo sapiens, UniProt Q9BQF6); assay: inhibition of human SENP7 cleavage activity – biochemical, luminescence, SAR follow-up (AID 504497)
T2 sequence (Q9BQF6 whole entry): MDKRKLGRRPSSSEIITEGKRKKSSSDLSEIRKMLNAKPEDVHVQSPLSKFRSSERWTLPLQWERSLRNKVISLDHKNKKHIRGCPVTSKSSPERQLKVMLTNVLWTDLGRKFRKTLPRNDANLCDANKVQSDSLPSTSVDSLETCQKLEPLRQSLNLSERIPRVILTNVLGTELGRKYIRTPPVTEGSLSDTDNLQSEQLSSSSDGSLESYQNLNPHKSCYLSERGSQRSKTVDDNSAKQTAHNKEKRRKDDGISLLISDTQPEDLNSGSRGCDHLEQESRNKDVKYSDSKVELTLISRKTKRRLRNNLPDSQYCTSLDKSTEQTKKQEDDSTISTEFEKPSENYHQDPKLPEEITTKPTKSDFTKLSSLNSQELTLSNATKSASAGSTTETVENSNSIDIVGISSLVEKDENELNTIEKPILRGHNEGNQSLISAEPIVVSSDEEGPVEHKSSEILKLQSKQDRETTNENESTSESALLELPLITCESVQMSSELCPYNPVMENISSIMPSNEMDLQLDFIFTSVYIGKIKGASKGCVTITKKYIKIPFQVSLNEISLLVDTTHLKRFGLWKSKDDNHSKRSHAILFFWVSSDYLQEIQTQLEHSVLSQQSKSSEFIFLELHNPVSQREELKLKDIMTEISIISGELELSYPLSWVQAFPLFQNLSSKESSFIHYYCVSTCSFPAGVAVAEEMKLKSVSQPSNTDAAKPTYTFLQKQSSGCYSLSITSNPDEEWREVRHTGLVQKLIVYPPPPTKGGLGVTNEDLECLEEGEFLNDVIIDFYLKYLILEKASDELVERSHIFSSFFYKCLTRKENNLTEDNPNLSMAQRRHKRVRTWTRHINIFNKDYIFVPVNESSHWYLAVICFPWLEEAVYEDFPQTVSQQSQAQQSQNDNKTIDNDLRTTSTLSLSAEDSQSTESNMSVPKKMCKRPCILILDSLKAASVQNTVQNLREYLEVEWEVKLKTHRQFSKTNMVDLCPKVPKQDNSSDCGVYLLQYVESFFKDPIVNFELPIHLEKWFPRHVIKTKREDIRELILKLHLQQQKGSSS

[3] = biological target: MAP kinase-interacting serine/threonine-protein kinase 2 (Homo sapiens, UniProt Q9HBH9)
Chain of MAP kinase-interacting serine/threonine-protein kinase 2 (Q9HBH9 whole entry): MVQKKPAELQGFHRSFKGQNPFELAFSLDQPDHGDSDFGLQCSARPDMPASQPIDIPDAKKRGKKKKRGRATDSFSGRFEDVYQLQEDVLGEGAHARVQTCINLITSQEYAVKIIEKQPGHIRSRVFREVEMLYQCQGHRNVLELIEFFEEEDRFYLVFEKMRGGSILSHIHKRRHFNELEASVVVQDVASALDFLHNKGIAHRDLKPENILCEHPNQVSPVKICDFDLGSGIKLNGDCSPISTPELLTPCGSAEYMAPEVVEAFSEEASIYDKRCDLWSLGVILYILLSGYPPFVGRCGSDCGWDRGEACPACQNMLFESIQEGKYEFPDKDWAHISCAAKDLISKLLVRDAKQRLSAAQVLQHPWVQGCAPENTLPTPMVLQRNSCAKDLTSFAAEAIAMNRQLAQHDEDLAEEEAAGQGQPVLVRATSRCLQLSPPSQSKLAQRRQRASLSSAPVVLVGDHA

[4] = biological target: Polyadenylate-binding protein 1 (Homo sapiens, UniProt P11940); assay: MLLE binding blockers, Cy5 peptide tracer – biochemical, fluorescence polarization, Cy5-PAM2 peptide, secondary, miRNA deadenylation inhibitor project, dose response (AID 602260); details: read-out: IC50_Mean
Chain of Polyadenylate-binding protein 1 (P11940 whole entry): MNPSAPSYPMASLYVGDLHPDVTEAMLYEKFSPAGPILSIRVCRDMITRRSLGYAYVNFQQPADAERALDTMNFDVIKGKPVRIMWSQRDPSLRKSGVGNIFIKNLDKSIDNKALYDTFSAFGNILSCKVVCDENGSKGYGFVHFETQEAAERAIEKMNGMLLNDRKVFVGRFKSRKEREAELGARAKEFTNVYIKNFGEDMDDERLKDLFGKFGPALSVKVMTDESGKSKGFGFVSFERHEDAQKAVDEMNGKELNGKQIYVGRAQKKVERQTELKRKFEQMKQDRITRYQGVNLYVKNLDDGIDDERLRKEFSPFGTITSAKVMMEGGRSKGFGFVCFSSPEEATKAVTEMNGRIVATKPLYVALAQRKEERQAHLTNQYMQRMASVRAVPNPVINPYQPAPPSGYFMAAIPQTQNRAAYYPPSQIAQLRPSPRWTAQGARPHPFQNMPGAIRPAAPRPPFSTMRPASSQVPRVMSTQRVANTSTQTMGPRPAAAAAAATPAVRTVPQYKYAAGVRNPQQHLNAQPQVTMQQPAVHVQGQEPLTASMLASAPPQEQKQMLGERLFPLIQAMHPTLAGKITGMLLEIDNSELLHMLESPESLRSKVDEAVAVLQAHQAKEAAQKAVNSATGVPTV

[5] = biological target: Interleukin-1 receptor-associated kinase 4 (Homo sapiens, UniProt Q9NWZ3)
Chain of Interleukin-1 receptor-associated kinase 4 (Q9NWZ3 whole entry): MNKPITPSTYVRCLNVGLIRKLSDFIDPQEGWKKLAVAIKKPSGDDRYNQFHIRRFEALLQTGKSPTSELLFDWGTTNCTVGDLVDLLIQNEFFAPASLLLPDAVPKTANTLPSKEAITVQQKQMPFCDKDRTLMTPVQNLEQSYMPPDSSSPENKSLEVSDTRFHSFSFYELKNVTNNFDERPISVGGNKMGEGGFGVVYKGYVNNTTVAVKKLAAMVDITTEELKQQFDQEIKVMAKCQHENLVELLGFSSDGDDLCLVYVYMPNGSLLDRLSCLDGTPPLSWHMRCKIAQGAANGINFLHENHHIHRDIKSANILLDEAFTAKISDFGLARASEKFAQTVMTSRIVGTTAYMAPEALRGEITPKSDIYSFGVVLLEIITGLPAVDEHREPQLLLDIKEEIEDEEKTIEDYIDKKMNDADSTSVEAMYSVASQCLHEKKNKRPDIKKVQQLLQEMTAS

[6] = biological target: Serine/threonine-protein kinase Chk1 (Homo sapiens, UniProt O14757);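 also: measured as one member of a kinome-wide kinase profiling panel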
Chain of Serine/threonine-protein kinase Chk1 (O14757 whole entry): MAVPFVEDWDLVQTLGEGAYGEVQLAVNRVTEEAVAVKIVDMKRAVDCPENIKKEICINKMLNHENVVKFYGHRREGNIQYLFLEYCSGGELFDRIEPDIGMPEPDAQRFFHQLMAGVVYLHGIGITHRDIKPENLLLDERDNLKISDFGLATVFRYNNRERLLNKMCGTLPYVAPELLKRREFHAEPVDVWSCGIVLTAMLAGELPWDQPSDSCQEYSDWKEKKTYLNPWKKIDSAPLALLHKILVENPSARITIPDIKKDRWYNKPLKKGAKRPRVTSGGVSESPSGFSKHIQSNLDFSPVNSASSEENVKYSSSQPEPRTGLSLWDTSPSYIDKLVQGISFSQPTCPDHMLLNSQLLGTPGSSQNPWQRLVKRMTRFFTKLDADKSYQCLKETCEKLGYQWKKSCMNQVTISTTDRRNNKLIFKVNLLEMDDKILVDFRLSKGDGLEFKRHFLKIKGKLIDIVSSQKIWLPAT

[7] = biological target: Ribosomal protein S6 kinase alpha-3 (Homo sapiens, UniProt P51812);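 also: measured within a kinome-wide profiling panel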
Chain of Ribosomal protein S6 kinase alpha-3 (P51812 whole entry): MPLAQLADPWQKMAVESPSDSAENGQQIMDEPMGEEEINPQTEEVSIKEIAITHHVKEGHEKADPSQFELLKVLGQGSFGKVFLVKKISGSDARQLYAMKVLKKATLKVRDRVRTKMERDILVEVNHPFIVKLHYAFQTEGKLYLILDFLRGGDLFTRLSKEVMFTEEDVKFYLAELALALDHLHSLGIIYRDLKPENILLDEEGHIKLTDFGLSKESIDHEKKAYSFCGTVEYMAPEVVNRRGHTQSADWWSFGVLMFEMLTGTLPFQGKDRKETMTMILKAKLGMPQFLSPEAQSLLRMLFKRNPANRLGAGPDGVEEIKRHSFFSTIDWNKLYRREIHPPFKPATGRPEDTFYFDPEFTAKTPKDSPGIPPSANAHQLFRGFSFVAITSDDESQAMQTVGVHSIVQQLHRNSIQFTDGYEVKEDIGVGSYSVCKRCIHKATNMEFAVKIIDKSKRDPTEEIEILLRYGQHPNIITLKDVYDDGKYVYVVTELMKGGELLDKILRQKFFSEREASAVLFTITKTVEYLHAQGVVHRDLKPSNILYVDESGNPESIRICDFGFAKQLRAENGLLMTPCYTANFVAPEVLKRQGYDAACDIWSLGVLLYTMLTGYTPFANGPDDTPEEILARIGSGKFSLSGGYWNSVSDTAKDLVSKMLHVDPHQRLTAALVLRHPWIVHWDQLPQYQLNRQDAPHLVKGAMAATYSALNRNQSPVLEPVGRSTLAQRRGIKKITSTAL

[8] = biological target: Cyclin-dependent kinase 1 (Homo sapiens, UniProt P06493);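 also: Kinome-wide panel profiling, with the target listed as panel member CDC2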
Chain of Cyclin-dependent kinase 1 (P06493 whole entry): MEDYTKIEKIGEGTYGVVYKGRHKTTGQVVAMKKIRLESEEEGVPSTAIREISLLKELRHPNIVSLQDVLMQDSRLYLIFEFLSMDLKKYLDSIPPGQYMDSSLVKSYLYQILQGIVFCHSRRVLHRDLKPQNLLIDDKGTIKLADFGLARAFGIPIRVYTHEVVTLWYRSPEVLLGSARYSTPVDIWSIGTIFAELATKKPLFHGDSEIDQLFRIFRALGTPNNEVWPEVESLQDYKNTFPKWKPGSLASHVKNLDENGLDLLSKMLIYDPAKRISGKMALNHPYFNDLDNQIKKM

[9] = biological target: Rho-associated protein kinase 2 (Homo sapiens, UniProt O75116)
Chain of Rho-associated protein kinase 2 (O75116 whole entry): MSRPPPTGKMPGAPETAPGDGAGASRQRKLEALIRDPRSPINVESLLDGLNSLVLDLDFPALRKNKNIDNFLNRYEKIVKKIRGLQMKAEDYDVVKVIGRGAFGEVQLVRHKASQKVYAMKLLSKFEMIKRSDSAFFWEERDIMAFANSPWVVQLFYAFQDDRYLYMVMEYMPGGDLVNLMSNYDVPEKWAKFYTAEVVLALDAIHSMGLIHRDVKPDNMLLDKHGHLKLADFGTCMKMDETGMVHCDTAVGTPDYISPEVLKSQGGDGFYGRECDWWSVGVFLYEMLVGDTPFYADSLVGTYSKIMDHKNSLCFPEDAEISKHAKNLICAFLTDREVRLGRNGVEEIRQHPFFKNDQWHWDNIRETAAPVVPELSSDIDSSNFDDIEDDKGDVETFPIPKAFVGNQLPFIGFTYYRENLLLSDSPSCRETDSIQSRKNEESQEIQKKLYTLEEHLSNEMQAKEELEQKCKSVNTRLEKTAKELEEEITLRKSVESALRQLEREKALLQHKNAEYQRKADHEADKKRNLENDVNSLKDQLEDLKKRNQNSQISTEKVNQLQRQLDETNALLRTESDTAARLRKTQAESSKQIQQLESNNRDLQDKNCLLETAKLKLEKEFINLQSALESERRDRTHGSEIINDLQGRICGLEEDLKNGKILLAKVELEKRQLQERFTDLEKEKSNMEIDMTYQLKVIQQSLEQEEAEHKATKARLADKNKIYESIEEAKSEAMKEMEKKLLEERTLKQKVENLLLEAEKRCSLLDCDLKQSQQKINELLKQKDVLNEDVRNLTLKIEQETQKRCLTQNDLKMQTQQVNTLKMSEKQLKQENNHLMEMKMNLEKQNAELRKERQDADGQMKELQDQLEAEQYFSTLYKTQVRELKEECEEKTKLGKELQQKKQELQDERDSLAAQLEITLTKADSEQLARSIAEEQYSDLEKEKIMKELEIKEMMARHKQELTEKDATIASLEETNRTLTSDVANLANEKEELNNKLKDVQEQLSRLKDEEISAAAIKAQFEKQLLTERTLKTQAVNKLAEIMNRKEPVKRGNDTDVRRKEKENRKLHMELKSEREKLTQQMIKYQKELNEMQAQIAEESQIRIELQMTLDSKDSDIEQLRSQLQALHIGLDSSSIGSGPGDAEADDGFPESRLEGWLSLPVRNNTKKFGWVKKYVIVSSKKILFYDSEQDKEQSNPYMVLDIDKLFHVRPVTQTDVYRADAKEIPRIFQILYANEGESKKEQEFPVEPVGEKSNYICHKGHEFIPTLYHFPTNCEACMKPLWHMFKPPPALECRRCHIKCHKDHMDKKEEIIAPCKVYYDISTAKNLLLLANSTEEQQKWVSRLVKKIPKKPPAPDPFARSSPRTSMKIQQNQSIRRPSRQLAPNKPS

- EC50 [1]: > 53 µM (inactive)
SMILES: O=C(COC(=O)c1ccc([N+](=O)[O-])s1)Nc1cccc(S(=O)(=O)/N=C2/CCCCCN2)c1

SMILES: COc1ccc(C(C[N+](=O)[O-])c2c(C)[nH]n(-c3ccccc3)c2=O)cc1 (centres undefined)
- IC50 [2]: 12.3 µM (active)

SMILES: Oc1c2ccccc2c2c3c(cccc13)N=N2 [SP-600125]
- Ki [3]: 0.316 µM (active)
- IC50 [4]: > 66 µM (inactive)
- Ki [5]: 0.158 µM (active)
- Ki [6]: 1.26 µM (active)
- Ki [7]: 0.398 µM (active)
- Ki [8]: 1 µM (active)
- Ki [9]: 3.16 µM (active)
